The values that follow come from US6291199A, “Human phosphodiesterase type IVC, and its production and use” (Celltech Therapeutics Limited, priority 1994, dated 2001).

Data set [1] concerns PDE IVA. Conditions: in situ, CHO + beta 2 adrenergic receptor + PDE IVA, 10 uM inhibitor.
Experimental: Transfected cells were harvested with non-enzymatic cell dissociation reagent (Sigma) washed three times and re-suspended in Dulbecco's phosphate buffered saline containing 0.1% BSA and 0.1% glucose (DPBS+). The cells were incubated with 10 uM inhibitor (or solvent control, 0.1% DMSO) in DPBS+for 10 min at 37° C. The cell suspension was stimulated with isoproterenol (0.001-1 uM) for 2 min. The cells were pelleted at 12000 g and resuspended in 400 uL of boiling assay buffer 1s (DuPont cAMP measurement kit). The samples were heated in a boiling water bath for 10 min and frozen before being assayed for cAMP using a commercial cAMP radioimmunoassay (DuPont).
The test system of data set [2] is PDE IVA. Kind of data set: Inhibition of recombinant human PDE IVA (cAMP hydrolysis). The class given is biochemical. To be noted: enzyme from CHO cell lysates.
Data set [3] has as its system PDE IV A. Conditions: read-out: IC50 for rolipram inhibition; literature; cited from earlier work.
Data set [4] concerns PDE IV B. To be noted: read-out: IC50 for rolipram inhibition; literature; cited from earlier work.
The subject of data set [5] is PDE IV D. To be noted: read-out: IC50 for rolipram inhibition; literature; cited from earlier work.
The test system of data set [6] is recombinant PDE IV. Conditions: Torphy et al. 1992; cited from earlier work.
In data set [7] the test system is HL60 cells. Kind of data set: RT.PCR of PDE IV isoform mRNAs in Bt2 cAMP stimulated HL60 cells. To be noted: HL-60 cells. The data set is classed as cell-based, human. Here is the method: (§1) To identify a source of gene C mRNA, a number of cell lines were assayed for isoform mRNAs by reverse transcription coupled to polymerase chain reaction (RT.PCR). Total RNA was prepared using RNAzol (Biogenesis) and polyA+ mRNA selected by affinity chromatography using oligodT cellulose. 50 ng of first strand cDNA prepared by reverse transcriptase was amplified with the following pairs of gene specific primers for 40 cycles using the conditions, 94° C. 1 min, 55° C. 1 min, 72° C. 3 min.
(§2) The results of RT.PCR using the human gene primers to detect isoform mRNAs in both human tissue culture cells and rat tissues confirms that PDE IV mRNAs are widely distributed though the apparent levels of each isoform mRNA varies. Gene C mRNA appears to be more abundant than A,B, or D in cells derived from dorsal root ganglia and testes in rat. This latter result is consistent with data reported previously by Swinnen et al. (1989) ibid.

The test system of data set [8] is SKNSH cells. Put plainly: RT.PCR of PDE IV isoform mRNAs in Bt2 cAMP stimulated SKNSH cells. Conditions: SKN.SH cells. The data set is classed as cell-based, human. As for the experimental part: as §1, §2
Data set [9] relates to PDE IVA. Kind of data set: Inhibition of recombinant human PDE IVA (cAMP hydrolysis). The data set is classed as biochemical. As for the experimental part: Isolation of cDNA Clones for Gene A
A partial cDNA for gene A was isolated by PCR from a cDNA library prepared from PMA stimulated U937 cells using published sequence information (Livi G. et al. (1990) ibid)). Subsequently a conserved region probe form this cDNA was used to isolate a full length cDNA clone from a human frontal cortex cDNA library by hybridisation and washing at moderate stringency (final wash 2×SSC, 0.5% SDS at 60° C.).
The full length gene for PDE IVA was introduced into pEE7 and pYES vectors for expression in COS and yeast cells respectively.
Recombinant PDE IV enzymes were produced in COS cells by transient expression as described by Whittle N. et al. [(1987) Prot. Engineering 1 499-505]. Briefly […] cells/ml were transfected with 10 ug of plasmid. After 3 days in culture cells were washed with PBS and lysed by brief sonciation in 50 mM TES buffer, pH 7.6, (N. tris[hydroxymethyl]methyl) 2-aminoethane sulphonic acid containing proteases inhibitors (50 uM leupeptin, 1 uM pepstatin, 1 um phenylmethylsulphonylfluoride, 2 uM benzamidine). The cell homogenate was centrifuged ×12000 g for 10 min. and assayed for PDE IV activity.
For expression of PDE IVA and C in yeast cells, the two genes were inserted into the vector pYES (InVitrogen) as either Hind3/Xba1 (gene A) or EcoR1 (gene C) fragments isolated from pDEFC17 and pDEU7 vectors respectively. The resulting plasmids were designated as pDEFC 32 and pDEU8 respectively. Yeast cells (B7542: alpha, ura-3,trp1+, Leu2delta, pep4: His3, prBdelta 1.6R can 1, gal) were transformed with pDEFC32 and pDEU8 vectors using the lithium acetate method (Ito H. et al. (1983) J.Bacteriol. 51 163-168). Ura3 positive prototrophs were isolated and grown at 30° C. to an OD600 =1.0 in minimal media containing 2% glucose and […] leucine. Cells were recovered by centrifugation, washed and resuspended at OD600 =0.5 in minimal media containing 2% galactose to induce PDE IV expression. At an OD600 =1.0 cells were harvested, washed and broken in TES buffer plus proteases (see above) by milling with glass beads (425-600 um) at 4° C. The homogenate was clarified by centrifugation at 100,000 g for 30 mins at 4° C.
Enzyme reactions were carried out at pH 7.6 in 50 mM TES buffer containing 10 mM MgCl2, 3',5' cAMP (0.1 uM ^3 H-labelled 0.74-1.1 TBq/mmol) 5'AMP (2.5 uM ^14 C, 1.85-2.2 GBq/mmol) for 30 min at 30° C. Sufficient enzyme preparation was added to hydrolyse not more than 20% of substrate under these conditions. […] Reactions were stopped by rapid inactivation of enzyme by addition of trifluoroacetic acid to a final concentration of 1%. Substrate and product of reaction were separated as described by Smith et al. [(1993) Analyt. Biochem. 214 355-357] and the [^3 H] 5'AMP product analysed by scintillation counting. Correction for losses of [^3 H] […] during separation was made by reference to [^14 C] 5'AMP included in the reaction mixture.

Data set [10] concerns T lymphocytes. Conditions: relative to other enantiomer; Sommer et al. 1995; cited from earlier work.
Data set [11] deals with binding sites in the rodent forebrain tissue. To be noted: Schmiechen et al.; Kaulen et al. 1989; cited from earlier work.
Data set [12] has as its system beta 2 adrenergic receptor. Conditions: CHO cells expressing human beta2 adrenergic receptor; isoproterenol 0.001-1 uM, 2 min. The text has this:
Isolation of Human Beta 2 Adrenergic Receptor Gene.
The human beta 2 adrenergic receptor gene (Kobilka B. et al. (1987) J.Biol. Chem. 262 7321-7327) was isolated from HL-60 cells genomic DNA by PCR using the following primers: […]
The plasmid was named pRO1 44.

In data set [13] the test system is asthma. Conditions: in vivo; cited from earlier work.
The nature of data set [14]: Catalytic activity of PDE IVC and PDE IVA deletion mutants expressed in COS cells. The class given is biochemical. To be noted: constructs expressed in COS cells. The text has this:
Construction of PDE IVA and PDE IVC Deletion Mutants.
Deletion analyses of rat PDE IVD (Jin C. (1992) J.Biol.Chem. 27 18929-18939) and PDE IVB (Pillai R. et al. (1993) Proc.Natl.Acad.Sci.USA 90 11970-11974) have defined the minimum enzyme sequence required for catalytic activity. Corresponding deletions were made to both human PDE IV A and C enzymes and the activity of the resulting enzymes evaluated following transient expression in COS cells.
PDE IVA PCR was used to construct a plasmid (pDEFC18) containing the first 129 bp (Met1 to IIe 43) of the PDE IVA gene. In addition a 3' BamH1 restriction enzyme site was introduced into the sequence. The PCR primers were as follows: […]
A mutant deleted to the beginning of the catalytic domain (IIe43-GIn 330; Bolger et al. 1993 ibid) was produced by PCR using the following primers: […]
The PCR fragment was restricted with BamH1 and EcoR1 and cloned into the plasmid, pDEFC18 described above to produce the vector pDEFC23. Following sequencing this vector was restricted with Hind3 and Xho1 and inserted into Hind3/Xbal restricted pEE7 together with a Xho1/Xba1 fragment corresponding to the remaining 3' portion of gene A. The final plasmid was designated pDEFC24. […]
Biochem. 214 355-357] and the [^3 H] 5'AMP product analysed by scintillation counting. […]

Read-outs that look alike come from different tables or passages of the source.

As for `COc1ccc(C2CNC(=O)C2)cc1OC1CCCC1` (racemic) [Rolipram], in [1], the “reversal by rolipram of the prevention of cAMP accumulation, in words” value is “reversed”. Moreover, the IC50 in data set [2] was 287 nM; in data set [3] it was 200 to 500 nM; in data set [4] it was 200 to 500 nM; in data set [5], 200 to 500 nM. In addition, the “high affinity binding of rolipram, in words” value in data set [6] was “stereoselectivity for high affinity binding”.

Consider `CCCC(=O)Nc1ncnc2c1ncn2[C@@H]1O[C@@H]2COP(=O)(O)O[C@H]2[C@H]1OC(=O)CCC` [Bt2 CAMP], for which the “levels of PDE IV isoform mRNAs, in words” value was “levels of C and D but not A and B are elevated” in [7]; “levels of C and D but not A and B are elevated” in data set [8].

For `COc1ccc([C@@H]2CNC(=O)C2)cc1OC1CCCC1` [R-rolipram], the IC50 in [9] (enzyme from COS cells, read-out: IC50, PDE IVA) was determined as 292 nM; in data set [9] (enzyme from yeast, read-out: IC50, Yeast, A), 298 nM; in [2], 251 nM. Moreover, the “effectiveness in suppression of TNF release” value in [10] is “approximately 50 times”. Besides, the “affinity for binding sites over S-rolipram, in words” value in [11] is on record as “higher affinity”.

Regarding `CC(C)NCC(O)c1ccc(O)c(O)c1` (centres unmarked) [isopreterenol], the “cAMP levels, in words” value in [12] is recorded as “dose-dependent increase in cAMP levels”.

For the molecule `Cn1c(=O)c2[nH]cnc2n(C)c1=O` [theophylline], the “effect in asthma, in words” value in data set [13] was “has been shown to have a therapeutic effect”.

B1: PDE IVA Met 1: PDE IVA construct starting at Met 1, expressed in COS cells (protein, UniProt P27815 1-886, looked up)
chain: MEPPTVPSERSLSLSLPGPREGQATLKPPPQHLWRQPRTPIRIQQRGYSDSAERAERERQPHRPIERADAMDTSDRPGLRTTRMSWPSSFHGTGTGSGGAGGGSSRRFEAENGPTPSPGRSPLDSQASPGLVLHAGAATSQRRESFLYRSDSDYDMSPKTMSRNSSVTSEAHAEDLIVTPFAQVLASLRSVRSNFSLLTNVPVPSNKRSPLGGPTPVCKATLSEETCQQLARETLEELDWCLEQLETMQTYRSVSEMASHKFKRMLNRELTHLSEMSRSGNQVSEYISTTFLDKQNEVEIPSPTMKEREKQQAPRPRPSQPPPPPVPHLQPMSQITGLKKLMHSNSLNNSNIPRFGVKTDQEELLAQELENLNKWGLNIFCVSDYAGGRSLTCIMYMIFQERDLLKKFRIPVDTMVTYMLTLEDHYHADVAYHNSLHAADVLQSTHVLLATPALDAVFTDLEILAALFAAAIHDVDHPGVSNQFLINTNSELALMYNDESVLENHHLAVGFKLLQEDNCDIFQNLSKRQRQSLRKMVIDMVLATDMSKHMTLLADLKTMVETKKVTSSGVLLLDNYSDRIQVLRNMVHCADLSNPTKPLELYRQWTDRIMAEFFQQGDRERERGMEISPMCDKHTASVEKSQVGFIDYIVHPLWETWADLVHPDAQEILDTLEDNRDWYYSAIRQSPSPPPEEESRGPGHPPLPDKFQFELTLEEEEEEEISMAQIPCTAQEALTAQGLSGVEEALDATIAWEASPAQESLEVMAQEASLEAELEAVYLTQQAQSTGSAPVAPDEFSSREEFVVAVSHSSPSALALQSPLLPAWRTLSVSEHAPGLPGLPSTAAEVEAQREHQAAKRACSACAGTFGEDTSALPAPGGGGSGGDPT
modifications: full-length
notes: PDE IVA construct starting at Met 1, expressed in COS cells
In the case of B1, the Catalytic activity in data set [14] was determined as 0.155 pmol/min/µL.

B2: PDE IVC Met 1: PDE IVC construct starting at Met 1, expressed in COS cells (protein, UniProt Q08493 1-712, looked up)
chain: MENLGVGEGAEACSRLSRSRGRHSMTRAPKHLWRQPRRPIRIQQRFYSDPDKSAGCRERDLSPRPELRKSRLSWPVSSCRRFDLENGLSCGRRALDPQSSPGLGRIMQAPVPHSQRRESFLYRSDSDYELSPKAMSRNSSVASDLHGEDMIVTPFAQVLASLRTVRSNVAALARQQCLGAAKQGPVGNPSSSNQLPPAEDTGQKLALETLDELDWCLDQLETLQTRHSVGEMASNKFKRILNRELTHLSETSRSGNQVSEYISRTFLDQQTEVELPKVTAEEAPQPMSRISGLHGLCHSASLSSATVPRFGVQTDQEEQLAKELEDTNKWGLDVFKVAELSGNRPLTAIIFSIFQERDLLKTFQIPADTLATYLLMLEGHYHANVAYHNSLHAADVAQSTHVLLATPALEAVFTDLEILAALFASAIHDVDHPGVSNQFLINTNSELALMYNDASVLENHHLAVGFKLLQAENCDIFQNLSAKQRLSLRRMVIDMVLATDMSKHMNLLADLKTMVETKKVTSLGVLLLDNYSDRIQVLQNLVHCADLSNPTKPLPLYRQWTDRIMAEFFQQGDRERESGLDISPMCDKHTASVEKSQVGFIDYIAHPLWETWADLVHPDAQDLLDTLEDNREWYQSKIPRSPSDLTNPERDGPDRFQFELTLEEAEEEDEEEEEEGEETALAKEALELPDTELLSPEAGPDPGDLPLDNQRT
modifications: full-length
notes: PDE IVC construct starting at Met 1, expressed in COS cells
For the molecule B2, the Catalytic activity in data set [14] is 0.09 pmol/min/µL.

By IC50 is commonly meant the concentration that inhibits the measured activity by half.
